According to patent publication US7829528B2, “Compositions and methods for treating STAT-6 associated diseases or conditions” (The Rockefeller University, priority 2004, dated 2010):
Where no end group is shown, it is not given here.

Key:
[1] = tested on: CD4+ lymphocytes expressing IL-4; assay: Intracellular cytokine staining of CD4+ T cells producing IL-4 (flow cytometry); format: cell-based, BALB/c mice; conditions: ovalbumin + 100 μM peptide, ovalbumin alone 90.21 ± 8.02
Experimental: The levels of mRNA encoding IL-4, IL-13 and IFN-gamma were also evaluated by semiquantitative RT-PCR analysis. Ovalbumin-induced expression of both IL-4 and IL-13 mRNA was inhibited in splenocytes cultured with the STAT-6-IP and not the STAT-6-CP. […] The number of CD4+ T cells producing IL-4 was also quantified by intracellular cytokine staining. When splenocytes from ovalbumin-sensitized mice were cultured with ovalbumin, there was a significant increase in the number of CD4+ lymphocytes expressing IL-4 (Table 4). The increase in IL-4 expression was abrogated in splenocytes cultured with ovalbumin in the presence of the STAT-6-IP, while the STAT-6-CP had no effect.
BALB/c mice were sensitized systemically by two weekly i.p. injections of 0.025% ovalbumin mixed with 4 mg/mL Al(OH)3. One week after the second sensitization, mice were sacrificed and spleens harvested. A single cell suspension of splenocytes (5×10^6 cells/mL) was cultured in RPMI-1640 medium containing 10% heat-inactivated fetal bovine serum and 2 mM L-glutamine, 50 μM 2-mercaptoethanol, 100 U/mL penicillin, and 100 μg/mL streptomycin sulfate. […] After four days, culture supernatants were harvested to quantify cytokine production by ELISA. […] Cytokine expression was monitored by flow cytometry and analyzed using CELLQUEST™ software (Becton Dickinson). […]

IL-13 = assay: Ovalbumin-induced IL-13 production by splenocytes from ovalbumin-sensitized mice (ELISA); format: cell-based, BALB/c mice; conditions: ovalbumin 100 μg/mL + 100 μM peptide added daily, four days; ovalbumin alone 2585.4 ± 165.7
Experimental: Splenocytes from ovalbumin-sensitized mice were cultured for four days with no antigen, with ovalbumin alone, or with ovalbumin plus the STAT-6-IP or a STAT-6 Tyr-641 mutant (STAT-6-CP; Tyr-Ala-Arg-Ala-Ala-Ala-Arg-Gln-Ala-Arg-Ala-Gly-Arg-Gly-Phe-Val-Ser-Thr-Thr; SEQ ID NO:8). The STAT-6-IP and STAT-6-CP were added to splenocyte cultures daily. Treatment with the STAT-6-IP, but not the STAT-6-CP, reduced the supernatant levels of both IL-4 and IL-13 (Table 3).
BALB/c mice were sensitized systemically by two weekly i.p. injections of 0.025% ovalbumin mixed with 4 mg/mL Al(OH)3. One week after the second sensitization, mice were sacrificed and spleens harvested. A single cell suspension of splenocytes (5×10^6 cells/mL) was cultured in RPMI-1640 medium containing 10% heat-inactivated fetal bovine serum and 2 mM L-glutamine, 50 μM 2-mercaptoethanol, 100 U/mL penicillin, and 100 μg/mL streptomycin sulfate. Splenocytes were cultured for four days in the presence or absence of 100 μg/mL ovalbumin, either alone or with 100 μM STAT-6-IP or STAT-6-CP, which were added daily. After four days, culture supernatants were harvested to quantify cytokine production by ELISA. […] Cytokine expression was monitored by flow cytometry and analyzed using CELLQUEST™ software (Becton Dickinson). […]

In the case of “YARAAARQARAGRGFVSTT [STAT-6-CP, STAT-6 Tyr-641 mutant, control peptide]”, the “Percentage of IL4 positive cells ± SEM” value [1] is reported as 92.13 ± 5.62 Percentage and the “IL-13 (pg/mL ± SEM), culture supernatant” value (IL-13) is reported as 2136.2 ± 94.7 pg/mL.
